Tests used:
hAT1R [1] = target: T1, hAT1R (Homo sapiens, UniProt P30556); experiment: cell-based; settings: agonist mode; for EC50: read-out: BRET P63 EC50
T1 sequence (P30556 1-359): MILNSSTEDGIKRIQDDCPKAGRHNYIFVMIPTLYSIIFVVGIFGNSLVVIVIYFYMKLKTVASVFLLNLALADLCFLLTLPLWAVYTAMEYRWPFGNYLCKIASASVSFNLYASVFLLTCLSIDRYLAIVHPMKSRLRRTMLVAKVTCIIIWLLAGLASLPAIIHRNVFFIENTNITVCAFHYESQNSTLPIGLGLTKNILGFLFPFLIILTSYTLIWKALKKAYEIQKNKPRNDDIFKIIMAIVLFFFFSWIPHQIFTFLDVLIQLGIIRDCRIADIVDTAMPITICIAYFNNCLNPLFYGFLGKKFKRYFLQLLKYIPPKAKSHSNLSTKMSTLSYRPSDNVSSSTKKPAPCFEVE

AGTR1 [2] = target: T2, AGTR1 (Homo sapiens, UniProt P30556); experiment: DiscoveRx IP1 accumulation assay (HTRF), agonist mode, Pathunter CHO-K1 AGTR1 β-arrestin cell line; assay type: cell-based; settings: for EC50: read-out: IP-1 EC50
T2 construct: host or cells: Pathunter CHO-K1 AGTR1 β-arrestin cell line (CHO-K1)
T2 sequence (P30556 1-359): T1 sequence (P30556 1-359)
In short: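 Agonist mode in CHO-K1 AGTR1 β-arrestin cells plated 14-16 h before; compounds at varying concentrations for 90 min at 37° C, IP1 accumulation read by HTRF (D2-conjugate and anti-IP1 cryptate, 20 min room temperature). EC50 from 4-parameter logistic fit; activity given as percentage of maximal AII effect.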

hAT1R [3] = target: T1, hAT1R; experiment: cell-based; settings: section of the 42nd table ending at r951, example numbering restarts after the DiscoveRx section; read-out: β-arrestin2 EC50
hAT1R [4] = target: T1, hAT1R; experiment: BRET β-arrestin2 biosensor assay, higher receptor expression (hAT1R 5 ng/well), HEK293 cells; assay type: cell-based; settings: for EC50: High AT1R Expression
AGTR1 [5] = target: T2, AGTR1; experiment: DiscoveRx β-arrestin2 recruitment assay (enzyme complementation, Pathunter CHO-K1 AGTR1 β-arrestin cell line); assay type: cell-based; settings: DiscoveRx β-arrestin2 recruitment; for DiscoveRx β-arrestin2 Ymax (%): maximal response
In short: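 Chemiluminescent enzyme-complementation read-out of β-arrestin2 recruitment to AGTR1 in engineered CHO-K1 cells after 90 min compound exposure at 37° C. Values are 4-parameter logistic EC50s in agonist mode, IC50s in antagonist mode, with efficacy relative to the maximal All response.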

hAT1R [6] = target: T1, hAT1R; experiment: BRET Gq biosensor assay, agonist response, HEK293 cells; assay type: cell-based; settings: section of the 42nd table directly before the BRET P63 section
Experimental: BRET β-arrestin2 and Gq Activation Assays
In another aspect of the invention, association of the ATIR with signaling proteins is assessed using bioluminescence resonance energy transfer assays (Stephane Angers, Ali Salahpour et al. 2002). This technology measures the association between bioluminescent and fluorescent protein tags.
Several of the plasmid constructs used in BRET experiments were previously described. Briefly, the coding sequence of β-arrestin2 was fused to Renilla luciferase II to generate β-arrestin2-Rluc (Quoyer, Janz et al. 2013). The membrane targeting motif from K-Ras, CAAX motif (GKKKKKKSKTKCVIM), was fused to Renilla GFP to create rGFP-CAAX plasmid (Namkung Y et al., Nat Commun (2016) 7, 12178). The Renilla luciferase II was inserted in the Gaq protein to generate Gaq-Rluc (Breton, Sauvageau et al. 2010). The Gγ1 protein was tagged with GFP10 to obtain GFP-Gyl, using the same strategy described previously for GFP-Gy2 (Gales, Rebois et al. 2005). The Gaq binding domain of the p63RhoGEF protein (amino acids 295-502) was fused to Renilla luciferase II to create P63-Rluc. Finally, the hAT1R plasmid construct encoding the receptor was generated by optimizing the coding sequence of human angiotensin II receptor (GeneOptimizer from ThermoFisher), and adding an artificial cleavable signal peptide from bovine prolactin ([…]) in N-terminus of the receptor to increase cell surface expression.
Gq Biosensor Assay HEK293 cells were cultured in DMEM supplemented with Penicillin-Streptomycin and 10% fetal bovine serum. Two days before the BRET experiment, HEK293 cells were transfected with hAT1R expression plasmid (200 ng/well) as well as Gaq-Rluc (100 ng/well), Gβ1 (375 ng/well) and GFP-Gγ1 (625 ng/well), using linear polyethylenimine 25 kDa (PEI) at a PEI:DNA ratio of 3:1. Transfected cells were directly seeded in 96-well plates, at a density of 35 000 cells per well, and maintained in culture for the next 48 h.
BRET experiments were carried out subsequently using the following procedures: cells were washed once with Tyrode's buffer (137 mM NaCl, 1 mM CaCl2, 0.9 mM KCl, […], 3.6 mM NaH2PO4, 5.5 mM glucose, 12 mM NaHCO3, and 25 mM HEPES, pH 7.4) and 90 μl of Tyrode's buffer was added to each well. Cells were equilibrated in their new buffer at room temperature for at least 30 minutes. Following the equilibration period, the coelenterazine substrate was first added to the cells, 10 μl per well of a 10×solution (prolume purple coelenterazine at a final concentration of 2 μM), immediately followed by compound addition using the HP D300 digital dispenser from Tecan (10 singlicate concentrations). Cells were incubated for 5 min at room temperature and BRET readings were then collected using a Synergy Neo Multi-Mode reader from BioTek with BRET2 filters 410/515, to record agonist response. […] A second reading was collected 5 min after this second addition, using the Synergy Neo Multi-Mode reader from BioTek with BRET2 filters 410/515, to record antagonist response. The BRET signal was determined by calculating the ratio of the light emitted by GFP (515 nm) over the light emitted by the Rluc (410 nm). To analyze agonist response, BRET signal values were converted into percentage of activation using the non-stimulated control as 0% and AngII maximal response as 100%. Sigmoidal concentration-response curves were generated with those normalized values using a 4-parameter logistic equation (IDBS ActivityBase software), to determine EC50 of the different compounds. In the case of antagonist response analysis, BRET signal values were converted into percentage of inhibition using the fixed dose of AngII (corresponding to the EC50) as 0% and non-stimulated control as 100%. Sigmoidal concentration-response curves were generated with those normalized values using a 4-parameter logistic equation (IDBS ActivityBase software), to determine IC50 of the different compounds.

| SMILES | EC50 (AGTR1 [5]) | DiscoveRx β-arrestin2 Ymax (%) (AGTR1 [5]) | EC50 (hAT1R [6]) | BRET P63 Ymax (hAT1R [1]) | EC50 (hAT1R [1]) | IP-1 Ymax (%) (AGTR1 [2]) | EC50 (AGTR1 [2]) | EC50 (hAT1R [3]) | BRET β-Arrestin2 High AT1R Expression Ymax (%) (hAT1R [4]) | EC50 (hAT1R [4]) |
| --- | --- | --- | --- | --- | --- | --- | --- | --- | --- | --- |
| CCc1nc2c(C)cc(C)nc2n1Cc1ccc(-c2cc(Oc3ncccc3F)ccc2-c2nn[nH]n2)cc1 [Example 253] | 0.0312 µM | 37.2% |  | 12.6% | 0.0383 µM | 18.7% | 0.133 µM | 0.046 µM | 85.3% | 0.0179 µM |
| CCc1nc2c(C)cc(C)nc2n1Cc1ccc(-c2cc(Oc3cc(F)ccn3)ccc2-c2nn[nH]n2)cc1 [Example 254] | 0.0358 µM | 26.9% |  | 7.1% | 0.0399 µM | 30.0% | 0.177 µM | 0.0591 µM | 75.6% | 0.02 µM |
| CCc1nc2c(C)cc(C)nc2n1Cc1ccc(-c2cc(Oc3ncccc3Cl)ccc2-c2nn[nH]n2)cc1 [Example 255] | 0.123 µM | 26.3% |  | 6.0% | 0.0225 µM | 7.8% | 0.471 µM | 0.0878 µM | 80.2% | 0.0243 µM |
| CCc1nc2c(C)cc(C)nc2n1Cc1ccc(-c2cc(Oc3cccnc3)ccc2-c2nnn[nH]2)cc1 [Example 257] | 0.009 µM | 34.9% |  | 10.8% | 0.0237 µM | 10.7% | 0.0283 µM | 0.0291 µM | 87.3% | 0.01 µM |
| CCc1nc2c(C)cc(C)nc2n1Cc1ccc(-c2cc(Oc3cncnc3)ccc2-c2nnn[nH]2)cc1 [Example 258] | 0.0231 µM | 35.2% |  | 17.5% | 0.14 µM | 15.1% | 0.0428 µM | 0.0819 µM | 75.7% | 0.0415 µM |
| CCc1nc2c(C)cc(C)nc2n1Cc1ccc(-c2cc(Oc3cncc(C)c3)ccc2-c2nn[nH]n2)cc1 [Example 260] | 0.0517 µM | 36.4% |  |  | > 100 µM | 18.5% | 0.175 µM | 0.0499 µM | 87.9% | 0.0078 µM |
| CCOc1nc2cccc(C(=O)O)c2n1Cc1ccc(-c2cc(-c3ccc(OC)cn3)ccc2-c2noc(=O)[nH]2)cc1 [Example 308] | 0.0291 µM | 51.8% | 0.0273 µM |  |  |  |  |  |  |  |
| CCOc1nc2cccc(C(=O)O)c2n1Cc1ccc(-c2cc(N3CC(C)(C)c4ccccc43)ccc2C(=O)O)cc1 [Example 319, 1-((2′-carboxy-5′-(3,3-dimethylindolin-1-yl)-[1,1′-biphenyl]-4-yl)methyl)-2-ethoxy-1H-benzo[d]imidazole-7-carboxylic acid] | 0.0711 µM | 49.0% | 0.787 µM |  |  |  |  |  |  |  |

More lines, main results first:

| EC50 (AGTR1 [5]) | DiscoveRx β-arrestin2 Ymax (%) (AGTR1 [5]) | EC50 (hAT1R [6]) | SMILES | BRET P63 Ymax (hAT1R [1]) | EC50 (hAT1R [1]) | IP-1 Ymax (%) (AGTR1 [2]) | EC50 (AGTR1 [2]) | EC50 (hAT1R [3]) | BRET β-Arrestin2 High AT1R Expression Ymax (%) (hAT1R [4]) | EC50 (hAT1R [4]) |
| --- | --- | --- | --- | --- | --- | --- | --- | --- | --- | --- |
| 0.802 µM | 51.8% | 2.62 µM | CCOc1nc2cccc(C(=O)O)c2n1Cc1ccc(-c2cc(-c3cnc(OC)c(C)c3)ccc2-c2nn[nH]n2)cc1 [Example 328, 2-ethoxy-1-((5′-(6-methoxy-5-methylpyridin-3-yl)-2′-(2H-tetrazol-5-yl)-[1,1′-biphenyl]-4-yl)methyl)-1H-benzo[d]imidazole-7-carboxylic acid] |  |  |  |  |  |  |  |
| 0.173 µM | 24.6% | 16.6 µM | CCCCc1nc(Cl)c(C(=O)O)n1Cc1ccc(-c2cc(N3CCC[C@H](C)C3)ccc2-c2noc(=O)[nH]2)cc1 [Example 407, (S)-2-butyl-4-chloro-1-((5′-(3-methylpiperidin-1-yl)-2′-(5-oxo-4,5-dihydro-1,2,4-oxadiazol-3-yl)-[1,1′-biphenyl]-4-yl)methyl)-1H-imidazole-5-carboxylic acid] |  |  |  |  |  |  |  |
| 0.0233 µM | 32.5% | > 100 µM | CCCCc1nc(Cl)c(C(=O)O)n1Cc1ccc(-c2cc(-n3ccc4ccccc43)ccc2-c2noc(=O)[nH]2)cc1 [Example 408] |  |  |  |  |  |  |  |
| 0.0309 µM | 56.4% | 0.017 µM | CCCCc1nc(Cl)c(C(=O)OCc2oc(=O)oc2C)n1Cc1ccc(-c2cc(-c3ccccc3)ccc2-c2nn[nH]n2)cc1 [Example 411] |  |  |  |  |  |  |  |
| 0.0117 µM | 64.1% | 0.0627 µM | CCCc1nc(CC)c(C(=O)OCc2oc(=O)oc2C)n1Cc1ccc(-c2cc(-c3ccccc3)ccc2-c2nn[nH]n2)cc1 [Example 412, (5-methyl-2-oxo-1,3-dioxol-4-yl)methyl 1-((6′-(2H-tetrazol-5-yl)-[1,1′:3′,1′″-terphenyl]-4-yl)methyl)-4-ethyl-2-propyl-1H-imidazole-5-carboxylate] |  |  |  |  |  |  |  |
| 0.0059 µM | 39.6% | > 100 µM | CCCCc1nc(Cl)c(C(=O)O)n1Cc1ccc(-c2cc(-n3ccc4ccccc43)ccc2-c2nn[nH]n2)cc1 [Example 417] |  |  |  |  |  |  |  |
| 0.0065 µM | 73.6% | 0.0797 µM | CCCCc1nc(Cl)c(C(=O)O)n1Cc1ccc(-c2cc(-c3cc(C)ccn3)ccc2-c2nn[nH]n2)cc1 [Example 420] |  |  |  |  |  |  |  |
| 0.0094 µM | 38.5% | 0.0925 µM | CCCCc1nc(Cl)c(C(=O)O)n1Cc1ccc(-c2cc(-c3cc(OC)ccn3)ccc2-c2nn[nH]n2)cc1 [Example 421] |  |  |  |  |  |  |  |
| 0.0687 µM | 26.7% | 0.209 µM | CCCCc1nc(Cl)c(C(=O)O)n1Cc1ccc(-c2cc(-c3cc(N(C)C)ccn3)ccc2-c2nn[nH]n2)cc1 [Example 422, 2-butyl-4-chloro-1-((5′-(4-(dimethylamino)pyridin-2-yl)-2′-(2H-tetrazol-5-yl)-[1,1′-biphenyl]-4-yl)methyl)-1H-imidazole-5-carboxylic acid] |  |  |  |  |  |  |  |

From patent US12037324B2, “Biarylmethyl heterocycles” (Université de Montréal, priority 2016, dated 2024)
